Measurements reported in patent publication US12336981B2, “Compounds and compositions for the inhibition of NAMPT” (Valo Health, Inc., priority 2010, dated 2025).
Where two headings read alike, the source gives them in different places.

How the values were obtained:
NAMPT = biological target: T1, NAMPT (Homo sapiens, UniProt P43490); assay: Biochemical inhibition assay: NAMPT enzymatic reaction, NMN quantified by mass spectrometry; settings: read-out: Biochem IC50
T1 construct: His tag; host or cells: E. coli
How it was run: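 Inhibition of E. coli-expressed His-tagged human NAMPT, measured as NMN formation by mass spectrometry after a 30 min room-temperature reaction containing 1 μM NAM, 100 μM PRPP and 2.5 mM ATP.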

A2780 cells = assay: In-vitro cell proliferation assay (SRB), A2780 cells; format: cell-based; settings: Homo sapiens, A2780, 72 h, A2780 cells, 72 hours, read-out: A2780 IC50
How it was run: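 Viable cells measured by SRB staining after 6% TCA fixation, absorbance 570 nm. Media-only background subtracted; % inhibition derived at two compound concentrations.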

T1 sequence (P43490 whole entry): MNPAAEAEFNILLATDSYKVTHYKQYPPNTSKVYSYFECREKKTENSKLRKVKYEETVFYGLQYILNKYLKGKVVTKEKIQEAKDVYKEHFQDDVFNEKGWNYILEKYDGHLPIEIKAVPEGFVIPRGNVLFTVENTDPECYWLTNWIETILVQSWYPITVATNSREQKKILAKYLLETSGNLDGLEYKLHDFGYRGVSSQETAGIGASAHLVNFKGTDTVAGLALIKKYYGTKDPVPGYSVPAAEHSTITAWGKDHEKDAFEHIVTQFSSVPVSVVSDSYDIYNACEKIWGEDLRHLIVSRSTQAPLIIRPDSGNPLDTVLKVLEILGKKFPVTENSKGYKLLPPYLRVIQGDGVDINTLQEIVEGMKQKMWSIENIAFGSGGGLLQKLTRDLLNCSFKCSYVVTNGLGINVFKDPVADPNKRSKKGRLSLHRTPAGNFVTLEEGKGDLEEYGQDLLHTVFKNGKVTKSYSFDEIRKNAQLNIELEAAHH

SMILES | IC50 (NAMPT; NAMPT enzymatic assay) | IC50 (A2780 cells; SRB) | IC50 (NAMPT; NAMPT enzymatic reaction) | IC50 (A2780 cells; SRB assay)
O=C(NCc1ccc(S(=O)(=O)c2cncc3ccccc23)cc1)c1cc2ccncc2o1 [N-{[4-(isoquinoline-4-sulfonyl)phenyl]methyl}furo[2,3-c]pyridine-2-carboxamide] | 19 nM | 3 nM | – | –
CC(C)Oc1ccc(Cl)cc1S(=O)(=O)c1ccc(CNC(=O)c2cnc3nccn3c2)cc1 [N-[(4-{[5-chloro-2-(propan-2-yloxy)benzene]sulfonyl}phenyl)methyl]imidazo[1,2-a]pyrimidine-6-carboxamide] | 4.7 nM | 14.6 nM | – | –
CCOCc1ccccc1S(=O)(=O)c1ccc(CNC(=O)c2cc3cnccc3[nH]2)cc1 | 18.5 nM | 6.7 nM | – | –
CC(C)Oc1cccc(S(=O)(=O)c2ccc(CNC(=O)c3ccc4nccn4c3)cc2)c1F | 7.8 nM | 4 nM | – | –
O=C(NCc1ccc(S(=O)(=O)Nc2ccccc2CCO)cc1)c1cc2cnccc2[nH]1 [N-[(4-{[2-(2-hydroxyethyl)phenyl]sulfamoyl}phenyl)methyl]-1H-pyrrolo[3,2-c]pyridine-2-carboxamide] | 18.8 nM | 19.9 nM | – | –
O=C(NCc1ccc(S(=O)(=O)c2cnc3ccccc3c2)cc1)c1cc2cnccc2[nH]1 [N-{[4-(quinoline-3-sulfonyl)phenyl]methyl}-1H-pyrrolo[3,2-c]pyridine-2-carboxamide] | 16.3 nM | 2.9 nM | – | –
Cc1ccc(F)cc1S(=O)(=O)c1ccc(CNC(=O)c2cnc3[nH]ncc3c2)cc1 [N-({4-[(5-fluoro-2-methylbenzene)sulfonyl]phenyl}methyl)-1H-pyrazolo[3,4-b]pyridine-5-carboxamide] | – | 59.7 nM | 20.4 nM | –
O=C(NCc1ccc(NS(=O)(=O)c2ccccc2OC(F)(F)F)cc1)c1cc2cnccc2[nH]1 [N-[(4-{[2-(trifluoromethoxy)benzene]sulfonamido}phenyl)methyl]-1H-pyrrolo[3,2-c]pyridine-2-carboxamide] | – | – | 3 nM | 1 nM
Cc1csc(S(=O)(=O)c2ccc(CNC(=O)c3ccc4nccn4c3)cc2)c1 [N-{[4-(4-methylthiophene-2-sulfonyl)phenyl]methyl}imidazo[1,2-a]pyridine-6-carboxamide] | 12.4 nM | 12.5 nM | – | –
CCN(CC)C(=O)c1cc(F)cc(S(=O)(=O)c2ccc(CNC(=O)c3cnc4nccn4c3)cc2)c1 [N-[(4-{[3-(diethylcarbamoyl)-5-fluorobenzene]sulfonyl}phenyl)methyl]imidazo[1,2-a]pyrimidine-6-carboxamide] | 4.7 nM | 16.8 nM | – | –
CCOc1ccc(S(=O)(=O)c2ccc(CNC(=O)c3ccc4nccn4c3)cc2)c(C)c1 | – | 11.1 nM | 6.6 nM | –
O=C(NCc1ccc(S(=O)(=O)c2cccc3c2OCC3)cc1)c1ccc2nccn2c1 [N-{[4-(2,3-dihydro-1-benzofuran-7-sulfonyl)phenyl]methyl}imidazo[1,2-a]pyridine-6-carboxamide] | 12.5 nM | 6.4 nM | – | –
O=C(NCc1ccc(S(=O)(=O)c2ccc(Cl)c(C(F)(F)F)c2)cc1)c1cc2cnccc2[nH]1 [N-[(4-{[4-chloro-3-(trifluoromethyl)benzene]sulfonyl}phenyl)methyl]-1H-pyrrolo[3,2-c]pyridine-2-carboxamide] | – | – | 8 nM | 5 nM
O=C(NCc1ccc(S(=O)(=O)N2CCCCC2)cc1)c1cn2[nH]ccc2n1 [N-{[4-(piperidine-1-sulfonyl)phenyl]methyl}-1H-imidazo[1,2-b]pyrazole-5-carboxamide] | – | – | 0.8 nM | 11 nM
CCCCOc1ccc(S(=O)(=O)c2ccc(CNC(=O)c3cc4ccncc4s3)cc2)cc1F [N-({4-[(4-butoxy-3-fluorobenzene)sulfonyl]phenyl}methyl)thieno[2,3-c]pyridine-2-carboxamide] | – | 12.6 nM | 4.7 nM | –
CCOc1cccc(S(=O)(=O)c2ccc(CNC(=O)c3cnc4nccn4c3)cc2)c1 | – | 6.7 nM | 2.1 nM | –
COc1cc(C(F)(F)F)ccc1S(=O)(=O)c1ccc(CNC(=O)c2cnc3[nH]ncc3c2)cc1 | 120 nM | 28.1 nM | – | –
CCCOc1ccc(Cl)cc1S(=O)(=O)c1ccc(CNC(=O)c2cc3cnccc3[nH]2)cc1 | – | 1.2 nM | 7.5 nM | –
COc1cccc(S(=O)(=O)c2ccc(CNC(=O)c3cc4ccncc4o3)cc2)c1OC | – | 13.6 nM | 9.3 nM | –
CCCOc1ccc(S(=O)(=O)c2ccc(CNC(=O)c3ccc4nccn4c3)cc2)c(C)c1 | – | 13.3 nM | 9.2 nM | –
O=C(NCc1ccc(S(=O)(=O)c2cccc(OC(F)(F)F)c2)cc1)c1cc2ccncc2o1 | 3.4 nM | 6.7 nM | – | –
CN(C)c1cnc(S(=O)(=O)c2ccc(CNC(=O)c3ccc4nccn4c3)cc2)cn1 [N-({4-[5-(dimethylamino)pyrazine-2-sulfonyl]phenyl}methyl)imidazo[1,2-a]pyridine-6-carboxamide] | 16 nM | 3.6 nM | – | –
CCOc1ccc(S(=O)(=O)c2ccc(CNC(=O)c3cnc4[nH]ncc4c3)cc2)cc1F | – | 5.2 nM | 9.5 nM | –

SMILES | IC50 (NAMPT; NAMPT enzymatic assay) | IC50 (A2780 cells; SRB) | IC50 (NAMPT; NAMPT enzymatic reaction) | IC50 (A2780 cells; SRB assay)
O=C(NCc1ccc(S(=O)(=O)c2ccc(OCC(F)(F)F)c(F)c2)cc1)c1cc2ccncc2s1 | 4.6 nM | 23.5 nM | – | –
Cc1cc(F)cc(S(=O)(=O)c2ccc(CNC(=O)c3ccc4nccn4c3)cc2)c1 [N-({4-[(3-fluoro-5-methylbenzene)sulfonyl]phenyl}methyl)imidazo[1,2-a]pyridine-6-carboxamide] | – | 0.6 nM | 2.7 nM | –
CCCOc1ccc(S(=O)(=O)c2ccc(CNC(=O)c3cc4ccncc4o3)cc2)cc1Cl | – | 11.9 nM | 4.9 nM | –
CC(C)COc1cc(F)cc(S(=O)(=O)c2ccc(CNC(=O)c3cc4ccncc4s3)cc2)c1 | 4.8 nM | 7.5 nM | – | –
Cn1ncc2cc(S(=O)(=O)c3ccc(CNC(=O)c4cnc5[nH]ncc5c4)cc3)ccc21 [N-{[4-(1-methyl-1H-indazole-5-sulfonyl)phenyl]methyl}-1H-pyrazolo[3,4-b]pyridine-5-carboxamide] | 5.4 nM | 2.73 nM | – | –
Cc1cc(F)ccc1S(=O)(=O)c1ccc(CNC(=O)c2cnc3nccn3c2)cc1 | – | 100 to 1000 nM | 13 nM | –
O=C(NCc1ccc(S(=O)(=O)c2cncc(N3CCCC3)c2)cc1)c1ccc2nccn2c1 [N-({4-[5-(pyrrolidin-1-yl)pyridine-3-sulfonyl]phenyl}methyl)imidazo[1,2-a]pyridine-6-carboxamide] | 4 nM | 0.5 nM | – | –
Cn1ncc2c(S(=O)(=O)c3ccc(CNC(=O)c4ccc5ncsc5c4)cc3)cccc21 [N-{[4-(1-methyl-1H-indazole-4-sulfonyl)phenyl]methyl}-1,3-benzothiazole-6-carboxamide] | 9.8 nM | 1000 to 10000 nM | – | –
O=C(NCc1ccc(S(=O)(=O)c2cccc(CN3CCCCC3)c2)cc1)c1cnc2nccn2c1 | 1.9 nM | 30.6 nM | – | –
Cc1ncccc1S(=O)(=O)c1ccc(CNC(=O)c2cc3ccncc3s2)cc1 [N-{[4-(2-methylpyridine-3-sulfonyl)phenyl]methyl}thieno[2,3-c]pyridine-2-carboxamide] | 15.4 nM | 11.9 nM | – | –
O=C(NCc1ccc(S(=O)(=O)Nc2ccccc2N2CCOCC2)cc1)c1cc2cnccc2[nH]1 [N-[(4-{[2-(morpholin-4-yl)phenyl]sulfamoyl}phenyl)methyl]-1H-pyrrolo[3,2-c]pyridine-2-carboxamide] | – | – | 19 nM | 17 nM
CC(C)c1cccc(S(=O)(=O)c2ccc(CNC(=O)c3cc4cnccc4[nH]3)cc2)c1 [N-[(4-{[3-(propan-2-yl)benzene]sulfonyl}phenyl)methyl]-1H-pyrrolo[3,2-c]pyridine-2-carboxamide] | – | – | 6 nM | 4 nM
O=C(NC1CCCC1)c1cccc(S(=O)(=O)c2ccc(CNC(=O)c3cc4ccncc4s3)cc2)c1 | 4.8 nM | 13.8 nM | – | –
Cc1cc(C(F)(F)F)ccc1S(=O)(=O)c1ccc(CNC(=O)c2cc3ccncc3o2)cc1 | 34.5 nM | 63.1 nM | – | –
O=C(NCc1ccc(S(=O)(=O)c2ccc(OC(F)(F)F)cc2)cc1)c1cnc2nccn2c1 | 5 nM | 17.6 nM | – | –
CCOc1cc(Cl)ccc1S(=O)(=O)c1ccc(CNC(=O)c2cc3ccncc3o2)cc1 | – | 5.1 nM | 7.2 nM | –
O=C(NCc1ccc(S(=O)(=O)c2cccc(C(F)(F)F)c2Cl)cc1)c1cnc2[nH]ncc2c1 [N-[(4-{[2-chloro-3-(trifluoromethyl)benzene]sulfonyl}phenyl)methyl]-1H-pyrazolo[3,4-b]pyridine-5-carboxamide] | 36.5 nM | 38.4 nM | – | –
O=C(NCc1ccc(S(=O)(=O)c2cccc(N3CCCC3)c2)cc1)c1cc2ccncc2s1 | 1.9 nM | 2.5 nM | – | –
O=C(NCc1ccc(S(=O)(=O)c2ccc3nc(C(F)(F)F)cn3c2)cc1)c1cc2ccncc2o1 [N-({4-[2-(trifluoromethyl)imidazo[1,2-a]pyridine-6-sulfonyl]phenyl}methyl)furo[2,3-c]pyridine-2-carboxamide] | 21.2 nM | 11.9 nM | – | –
O=C(NCc1ccc(S(=O)(=O)c2ccc(N3CCOCC3)nc2)cc1)c1cnc2nccn2c1 [N-({4-[6-(morpholin-4-yl)pyridine-3-sulfonyl]phenyl}methyl)imidazo[1,2-a]pyrimidine-6-carboxamide] | 1.1 nM | 3.3 nM | – | –
Cc1cccc(S(=O)(=O)c2ccc(CNC(=O)c3cnc4nccn4c3)cc2)c1C | – | 46.9 nM | 4.1 nM | –
CC(=O)c1ccc(S(=O)(=O)c2ccc(CNC(=O)c3cnc4[nH]ncc4c3)cc2)cc1 | – | 3.7 nM | 28.9 nM | –
CC(C)(C)c1cccc(S(=O)(=O)c2ccc(CNC(=O)c3cnc4nccn4c3)cc2)c1 | – | 1.2 nM | < 0.65 nM | –
